This is an account of results in PubChem BioAssay (NCI).

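Each compound was tested at five concentrations against cells in 96-well plates for 48 hours. Abbreviation: GI50, concentration required for 50% inhibition of growth. Definition used: TGI = concentration required for complete inhibition of growth.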 Bounds are passed on as bounds.

Test systems include HCT-15 colon; HOP-92 NSCLC; COLO 205 colon; HOP-62 NSCLC; NCI-H226 lung; CAKI-1 renal; SK-OV-3 ovarian; SF-268 CNS; LOX IMVI melanoma.
Holding throughout (experiment): inhibition of tumour cell growth, NCI panel, 48 h

As for `CC1CCCc2c1n[nH]c2CC1CC(=O)NC(=O)C1` (centres undefined), the TGI in the assay on HCT-15 colon, in the assay with HOP-92 NSCLC, in the assay on COLO 205 colon, in the assay with HOP-62 NSCLC, in the assay on NCI-H226 lung and in the assay on CAKI-1 renal was above 100 µM in each case. Further, the TGI with SK-OV-3 ovarian, in the assay with SF-268 CNS and in the assay with LOX IMVI melanoma was above 100 µM throughout.

Take `OCC1CC2C=CCC(C2)C1` (centres undefined): the TGI with HOP-92 NSCLC, in the assay on COLO 205 colon, in the assay on HOP-62 NSCLC, in the assay on NCI-H226 lung, in the assay with CAKI-1 renal and with SK-OV-3 ovarian was above 100 µM each time. The TGI with SF-268 CNS and with LOX IMVI melanoma was above 100 µM in each case.

For the compound `C[N+]1(CCNP(=S)(NCC[N+]2(C)Cc3c(ccc4c3OCO4)C3C2c2cc4c(cc2C[C@@H]3O)OCO4)NCC[N+]2(C)Cc3c(ccc4c3OCO4)C3C2c2cc4c(cc2C[C@@H]3O)OCO4)Cc2c(ccc3c2OCO3)C2C1c1cc3c(cc1C[C@H]2O)OCO3` (some centres undefined), the values for the TGI in the assay with HCT-15 colon, in the assay on NCI-H226 lung and in the assay with CAKI-1 renal were below 0.00191 µM, 79.6 µM and 69.5 µM, respectively. Also, the GI50 was 3.43 µM in the assay on HOP-92 NSCLC; 1.65 µM in the assay on COLO 205 colon; 7.52 µM in the assay on HOP-62 NSCLC; 2.96 µM in the assay with SK-OV-3 ovarian; 6.67 µM in the assay on SF-268 CNS; 1.92 µM in the assay with LOX IMVI melanoma.

For `CCCC[C@H](CCc1ccccc1)N(C(=O)OC)N1CCC[C@H]1COC`, the TGI was 40.5 µM in the assay on HOP-92 NSCLC; 30.8 µM with COLO 205 colon; 40.4 µM in the assay with HOP-62 NSCLC; 36.2 µM with NCI-H226 lung; above 100 µM in the assay on CAKI-1 renal; 60.2 µM in the assay with SK-OV-3 ovarian. Also, the TGI in the assay on SF-268 CNS worked out at 43 µM; in the assay with LOX IMVI melanoma it was 34.9 µM.

In the case of `COc1ccc(/C=C/c2cc(OC)c(OC)c(OC)c2)cc1OC`, the TGI in the assay with HCT-15 colon, in the assay with HOP-92 NSCLC, with COLO 205 colon, in the assay on HOP-62 NSCLC, with NCI-H226 lung and in the assay on CAKI-1 renal was above 100 µM each time. For the same compound, the TGI in the assay on SK-OV-3 ovarian, in the assay with SF-268 CNS and in the assay on LOX IMVI melanoma was above 100 µM in each case.

For `C=C(C)[C@@H]1C/C=C(/COC(C)=O)CC[C@H]2O[C@@]2(C)CC/C=C(\C)CC1`, the GI50 in the assay on HCT-15 colon, with HOP-92 NSCLC, in the assay with COLO 205 colon, in the assay on HOP-62 NSCLC, in the assay on NCI-H226 lung and in the assay with CAKI-1 renal was above 100 µM each time. For the same compound, the GI50 in the assay on SK-OV-3 ovarian is above 100 µM; in the assay with SF-268 CNS it was above 100 µM; in the assay with LOX IMVI melanoma, 20.3 µM. Also, the TGI with HCT-15 colon, in the assay with HOP-92 NSCLC, in the assay with COLO 205 colon, in the assay on HOP-62 NSCLC, in the assay with NCI-H226 lung and in the assay on CAKI-1 renal was above 100 µM in each case. For the same compound, the results for the TGI in the assay with SK-OV-3 ovarian, in the assay on SF-268 CNS and with LOX IMVI melanoma were above 100 µM, above 100 µM and 46.5 µM, respectively.

For `CC(C)(C)c1cc[n+](C[n+]2ccc(C(C)(C)C)cc2)cc1`, the TGI with HCT-15 colon, with HOP-92 NSCLC, with COLO 205 colon, with HOP-62 NSCLC, in the assay on NCI-H226 lung and in the assay with CAKI-1 renal was above 100 µM in each case. Further, the TGI in the assay with SK-OV-3 ovarian and with SF-268 CNS was above 100 µM each time.

With `O=C(N/C(=C\c1cccc([N+](=O)[O-])c1)c1nc2c3c(ccc2[nH]1)C(=O)c1ccccc1C3=O)c1ccccc1`, the TGI with HCT-15 colon is above 100 µM; in the assay on HOP-92 NSCLC, above 100 µM; in the assay on HOP-62 NSCLC, above 100 µM; with NCI-H226 lung, above 100 µM; in the assay on CAKI-1 renal it was above 100 µM; with SK-OV-3 ovarian it was 78 µM. Also, in the assay with SF-268 CNS, the TGI is above 100 µM.

For the compound `C/C(COc1ccc2oc(-c3ccccc3)cc(=O)c2c1)=N\O`, the GI50 in the assay with HCT-15 colon was 7.87 µM; in the assay on HOP-92 NSCLC, 37.4 µM; in the assay on COLO 205 colon it was 11.8 µM; with HOP-62 NSCLC, 69.4 µM; in the assay with NCI-H226 lung, above 100 µM; with CAKI-1 renal, 32.5 µM. Also, the GI50 with SK-OV-3 ovarian is above 100 µM; in the assay on SF-268 CNS, 24.3 µM; in the assay with LOX IMVI melanoma it was 1.38 µM. In addition, the TGI with HCT-15 colon is above 100 µM; in the assay on HOP-92 NSCLC it was above 100 µM; with COLO 205 colon, 52.9 µM; with HOP-62 NSCLC, above 100 µM; with NCI-H226 lung it was above 100 µM; in the assay on CAKI-1 renal, above 100 µM. Besides, the TGI was above 100 µM in the assay with SK-OV-3 ovarian, above 100 µM in the assay with SF-268 CNS and 3.34 µM in the assay on LOX IMVI melanoma.

Consider `C/C(=N\NC(=O)c1ccccc1O)c1c(O)cc(C)oc1=O`, for which the TGI in the assay with HCT-15 colon was above 100 µM; with HOP-92 NSCLC, 68.3 µM; in the assay on COLO 205 colon, above 100 µM; in the assay with HOP-62 NSCLC it was above 100 µM; in the assay with NCI-H226 lung, above 100 µM; in the assay with SK-OV-3 ovarian it was 86.7 µM. Further, the TGI in the assay on SF-268 CNS and with LOX IMVI melanoma was above 100 µM throughout.

On to `CN1C(c2ccccc2)CC(=NO)CC1c1ccccc1` (centres undefined), for which the results for the GI50 with HCT-15 colon and in the assay with COLO 205 colon were 41.1 µM and 33.6 µM, respectively. Also, the TGI in the assay on HCT-15 colon is above 100 µM; in the assay on HOP-92 NSCLC, above 100 µM; with COLO 205 colon, 48 µM; in the assay with HOP-62 NSCLC, above 100 µM; with NCI-H226 lung, above 100 µM; in the assay with CAKI-1 renal, above 100 µM. For the same compound, the figures for the TGI in the assay on SK-OV-3 ovarian, with SF-268 CNS and in the assay with LOX IMVI melanoma were above 100 µM, above 100 µM and 40.7 µM, respectively.

For the compound `CC(=O)O[C@H]1CC[C@@]2(C)C(=CC[C@H]3C(CC#N)[C@@](C)(C#N)CCC32)C1` (some centres undefined), the TGI in the assay with HCT-15 colon was above 100 µM; in the assay with HOP-92 NSCLC it was 88.9 µM; with COLO 205 colon, above 100 µM; in the assay with HOP-62 NSCLC it was above 100 µM; with NCI-H226 lung it was above 100 µM; in the assay on SK-OV-3 ovarian, above 100 µM. The TGI in the assay with SF-268 CNS and in the assay with LOX IMVI melanoma was above 100 µM each time.

With `COc1cccc(/C=C2\N=C(Cl)OC2=O)c1O`, the TGI with HCT-15 colon, with HOP-92 NSCLC, in the assay with COLO 205 colon, in the assay with HOP-62 NSCLC, in the assay on NCI-H226 lung and with CAKI-1 renal was above 100 µM each time. For the same compound, the TGI in the assay with SK-OV-3 ovarian, in the assay with SF-268 CNS and with LOX IMVI melanoma was above 100 µM each time.

On to `CCCC(=O)Oc1ccc(/C=N/NC(N)=S)nc1`, for which the TGI in the assay with HCT-15 colon, in the assay on HOP-92 NSCLC, with COLO 205 colon, with HOP-62 NSCLC, in the assay with NCI-H226 lung and with CAKI-1 renal was above 100 µM throughout. Also, the TGI with SK-OV-3 ovarian, with SF-268 CNS and with LOX IMVI melanoma was above 100 µM each time.

`Cn1cnc(SC2=CC(=O)C=C3S[C@H]4C[C@@]23c2c(c(O)c3c5c2=NCCC=5C=N3)N4)c1CC(N)C(=O)O` (some centres undefined): the GI50 was 18.4 µM in the assay with HCT-15 colon; 17.5 µM in the assay with HOP-92 NSCLC; 1.53 µM with COLO 205 colon; 15.8 µM in the assay with NCI-H226 lung; 18.7 µM in the assay on CAKI-1 renal; 18 µM with SK-OV-3 ovarian. In addition, the values for the GI50 in the assay on SF-268 CNS and with LOX IMVI melanoma were 12.4 µM and 4.64 µM, respectively. The TGI in the assay on HCT-15 colon amounted to 33.7 µM; in the assay with HOP-92 NSCLC, 31.7 µM; in the assay on COLO 205 colon it was 3.01 µM; in the assay with NCI-H226 lung, 33.8 µM; with CAKI-1 renal, 33.3 µM; in the assay on SK-OV-3 ovarian it was 36.6 µM. Besides, the TGI in the assay with SF-268 CNS was 26.1 µM; in the assay on LOX IMVI melanoma, 18.6 µM.

Consider `CCOC(=O)NC(=O)c1cn(C2CCCCC2)c(=O)n(C)c1=O`, for which the TGI in the assay on HCT-15 colon, with HOP-92 NSCLC, in the assay on COLO 205 colon, with HOP-62 NSCLC, in the assay on NCI-H226 lung and in the assay with CAKI-1 renal was above 100 µM throughout. Moreover, the TGI with SK-OV-3 ovarian, with SF-268 CNS and in the assay on LOX IMVI melanoma was above 100 µM in each case.

As for `COc1nc(NC2OC(COC(C)=O)C(OC(C)=O)C(OC(C)=O)C2OC(C)=O)c(N=C(C)C(C)=O)c(=O)n1C` (centres undefined), the TGI in the assay with HCT-15 colon, with HOP-92 NSCLC, in the assay on COLO 205 colon, with HOP-62 NSCLC, with NCI-H226 lung and with CAKI-1 renal was above 100 µM each time. In addition, the TGI in the assay on SK-OV-3 ovarian and with LOX IMVI melanoma was above 100 µM in each case.

With `CSc1nc2c(nc(N)n2C2OC(CO)C(O)C(O)C2O)c(=O)[nH]1` (centres undefined), the TGI with HOP-92 NSCLC, in the assay with COLO 205 colon, in the assay on HOP-62 NSCLC, with NCI-H226 lung, in the assay with CAKI-1 renal and with SK-OV-3 ovarian was above 100 µM throughout. Besides, the TGI with SF-268 CNS and in the assay on LOX IMVI melanoma was above 100 µM throughout.

As to `CC(=O)N(N=O)c1ccc(N(N=O)C(C)=O)cc1`, the TGI with HCT-15 colon, in the assay on HOP-92 NSCLC, with COLO 205 colon, in the assay with HOP-62 NSCLC, in the assay with NCI-H226 lung and in the assay with CAKI-1 renal was above 100 µM throughout. In addition, the TGI in the assay with SK-OV-3 ovarian, in the assay on SF-268 CNS and in the assay on LOX IMVI melanoma was above 100 µM each time.
